Experiments:
[1] = system: mixed lymphocyte responses; assay: In vitro site-specific mixed lymphocyte response; type: cell-based; settings: FIGS. 14 A and B
[2] = system: contact hypersensitivity reactions of skin tissue; settings: topical
Excerpt: Rapamycin (0.01%), cyclosporine (0.1%), and rapamycin-cyclosporine (0.01%/0.1%) combined formulations, were applied in a trinary drug delivery system consisting of 1,2 propanediol, diethylene glycol monoethyl ether, and a glyceryl caprylate/caprate polyethylene glycol complex.
To further elaborate, rapamycin (0.001%), cyclosporine (0.01%), and rapamycin-cyclosporine (0.001%/0.01%) combined formulations, were applied in a trinary drug delivery system consisting of 1,2 propanediol, diethylene glycol monoethyl ether, and a glyceryl caprylate/caprate polyethylene glycol complex (6:3:1).

CO[C@H]1C[C@@H]2CC[C@@H](C)[C@@](O)(O2)C(=O)C(=O)N2CCCC[C@H]2C(=O)O[C@H]([C@H](C)C[C@@H]2CC[C@@H](O)[C@H](OC)C2)CC(=O)[C@H](C)/C=C(\C)[C@@H](O)[C@@H](OC)C(=O)[C@H](C)C[C@H](C)/C=C/C=C/C=C/1C [Rapamycin, rapamycin]
site-specific immune suppression of primary or activated cellular immune responses ([1]; agent alone): provided potent site-specific immune suppression
efficacy by inflammatory immune phase (early versus late) ([1]; local application): surprisingly efficacious with local application during both late and early inflammatory immune phases
efficacy by local inflammatory immune phase (early versus late) ([2]; contact dermatitis model): particularly efficacious during the late local inflammatory-immune phase
site-specific immune suppression in contact dermatitis at low concentrations ([2]; rapamycin 0.001%, cyclosporine 0.01%, combination 0.001%/0.01%, trinary vehicle (6:3:1)): provided surprising site-specific immune suppression
local inflammatory/immune response in contact hypersensitivity ([2]; rapamycin 0.01%, cyclosporine 0.1%, combination 0.01%/0.1%, 1,2 propanediol/Transcutol/Labrasol vehicle, FIG. 13B): inhibited local inflammatory/immune responses
